pKd: −log10 of the molar value. Counter-ions that a name gives are not always drawn.
The compounds below were run against CRBN-DDB1 (Homo sapiens (Human), UniProt Q96SW2) (assay: CRBN-DDB1 fluorescence polarization (FP) binding assay). Settings: displacement of Thalidomide-Alexa Fluor or Pomalidomide-fluorescein probe.
Description: Measuring compound ligand binding to CRBN-DDB1 was carried out using an established sensitive and quantitative in vitro fluorescence polarization (FP) based binding assay. […] Compounds were dispensed from serially diluted DMSO stock into black 384-well compatible fluorescence polarization plates using an Echo acoustic dispenser. Compound binding to CRBN-DDB1 was measured by displacement of either a (−)-Thalidomide-Alexa Fluor® or Pomalidomide-fluorescein conjugated probe dye. […] Matching control wells excluding CRBN-DDB1 were used to correct for background fluorescence. Plates were read on an Envision plate reader with appropriate FP filter sets. The corrected S (perpendicular) and P (parallel) values were used to calculate fluorescence polarization (FP) with the following equation: FP=1000*(S−G*P)/(S+G*P).

CRBN-DDB1, sequence (Q96SW2 whole entry): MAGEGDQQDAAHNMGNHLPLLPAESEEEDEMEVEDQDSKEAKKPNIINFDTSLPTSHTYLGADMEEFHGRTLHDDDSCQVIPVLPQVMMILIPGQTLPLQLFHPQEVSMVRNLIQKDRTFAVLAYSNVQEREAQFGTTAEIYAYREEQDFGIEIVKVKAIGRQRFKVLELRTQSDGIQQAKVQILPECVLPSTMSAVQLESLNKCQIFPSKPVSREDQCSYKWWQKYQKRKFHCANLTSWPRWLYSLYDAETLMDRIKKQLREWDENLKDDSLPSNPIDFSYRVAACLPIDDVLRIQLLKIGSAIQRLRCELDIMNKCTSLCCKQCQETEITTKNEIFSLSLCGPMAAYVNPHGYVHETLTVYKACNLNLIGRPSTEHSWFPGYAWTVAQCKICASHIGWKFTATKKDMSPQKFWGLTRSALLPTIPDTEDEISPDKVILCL
CRBN-DDB1, sequence (Q16531 whole entry partner): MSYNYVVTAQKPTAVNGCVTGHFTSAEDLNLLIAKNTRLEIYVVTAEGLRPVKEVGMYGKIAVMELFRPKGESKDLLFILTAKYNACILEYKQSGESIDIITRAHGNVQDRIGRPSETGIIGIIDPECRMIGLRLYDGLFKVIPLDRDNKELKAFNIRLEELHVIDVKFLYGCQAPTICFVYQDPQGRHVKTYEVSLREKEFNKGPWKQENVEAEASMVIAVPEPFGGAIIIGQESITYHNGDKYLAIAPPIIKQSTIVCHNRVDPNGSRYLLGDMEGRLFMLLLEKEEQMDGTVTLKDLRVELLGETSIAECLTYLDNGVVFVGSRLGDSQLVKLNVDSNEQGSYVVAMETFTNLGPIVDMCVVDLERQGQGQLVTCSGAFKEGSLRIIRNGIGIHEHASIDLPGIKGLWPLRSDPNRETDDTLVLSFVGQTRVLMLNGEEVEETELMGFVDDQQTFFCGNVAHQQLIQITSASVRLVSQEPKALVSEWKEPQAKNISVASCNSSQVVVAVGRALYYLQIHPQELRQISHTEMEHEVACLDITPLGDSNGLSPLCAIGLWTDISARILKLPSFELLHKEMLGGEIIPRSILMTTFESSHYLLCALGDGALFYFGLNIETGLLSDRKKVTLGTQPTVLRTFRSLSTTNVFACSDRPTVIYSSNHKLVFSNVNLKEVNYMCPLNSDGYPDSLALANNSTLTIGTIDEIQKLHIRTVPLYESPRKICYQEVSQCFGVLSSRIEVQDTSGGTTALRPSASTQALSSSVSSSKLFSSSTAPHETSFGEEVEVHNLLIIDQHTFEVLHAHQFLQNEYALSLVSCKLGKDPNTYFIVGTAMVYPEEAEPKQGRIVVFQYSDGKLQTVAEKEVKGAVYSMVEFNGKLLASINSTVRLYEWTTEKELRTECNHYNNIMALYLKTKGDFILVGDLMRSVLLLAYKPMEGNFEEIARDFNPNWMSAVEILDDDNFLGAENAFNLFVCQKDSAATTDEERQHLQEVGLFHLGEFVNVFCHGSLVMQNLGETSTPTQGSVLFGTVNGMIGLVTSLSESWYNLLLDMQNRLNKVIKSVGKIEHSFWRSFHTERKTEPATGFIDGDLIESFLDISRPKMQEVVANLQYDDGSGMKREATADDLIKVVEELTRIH

SMILES	pKd
Cc1nc(C2CCC(=O)NC2=O)n2ccccc12 (centres unmarked) [Compound 61, 3-(1-methylimidazo[1,5-a]pyridin-3-yl)piperidine-2,6-dione]	> 5.00
Nc1ccc(C23CC2C(=O)NC3=O)cc1 (centres unmarked) [Compound 4, 1-(4-Aminophenyl)-3-azabicyclo[3.1.0]hexane-2,4-dione]	< 4.52
Cn1nc(C2CCC(=O)NC2=O)c2ccc(N)cc21 (centres unmarked) [Compound 51, 3-(6-amino-1-methyl-indazol-3-yl)piperidine-2,6-dione]	4.00 to 4.30
COc1cccc(C2CCC(=O)NC2=O)n1 (centres unmarked) [Compound 34, 3-(6-methoxypyridin-2-yl)piperidine-2,6-dione]	4.30 to 5.00
Cn1nc(C2(C)CCC(=O)NC2=O)c2ccccc21 (centres unmarked) [Compound 47, 3-Methyl-3-(1-methyl-1H-indazol-3-yl)-piperidine-2,6-dione]	4.30 to 5.00
O=C1CCC(c2ncc3ccccn23)C(=O)N1 (centres unmarked) [Compound 28, 3-Imidazo[1,5-a]pyridin-3-yl-piperidine-2,6-dione]	> 5.00
CC1(c2ccc(N)cc2)CCC(=O)NC1=O (centres unmarked) [Compound 10, 3-(4-Aminophenyl)-3-methylpiperidine-2,6-dione]	< 4.52
Cn1cc(CC2CCC(=O)NC2=O)nn1 (centres unmarked) [Compound 25, 3-(1-Methyl-1H-[1,2,3]triazol-4-ylmethyl)-piperidine-2,6-dione]	4.00 to 4.30
Cn1cccc(C2CCC(=O)NC2=O)c1=O (centres unmarked) [Compound 59, 3-(1-methyl-2-oxo-1,2-dihydropyridin-3-yl)piperidine-2,6-dione]	4.00 to 4.30
COc1ccccc1N(C)C(=O)C1CCC(=O)NC1=O (centres unmarked) [Compound 19]	< 4.00
Cn1c(CC2CCC(=O)NC2=O)nc2ccccc21 (centres unmarked) [Compound 12]	4.00 to 4.30
O=C1CCC(c2nccc3ccccc23)C(=O)N1 (centres unmarked) [Compound 58, 3-(Isoquinolin-1-yl)piperidine-2,6-dione]	4.30 to 5.00
CC(C)(C)OC(=O)N1Cc2ccc(C3CCC(=O)NC3=O)cc2C1 (centres unmarked) [Compound 54, 5-(2,6-Dioxo-piperidin-3-yl)-1,3-dihydro-isoindole-2-carboxylic acid tert-butyl ester]	4.30 to 5.00
O=C1CCC(O)(C(=O)OCc2ccccc2)C(=O)N1 (centres unmarked) [Compound 60, benzyl 3-hydroxy-2,6-dioxopiperidine-3-carboxylate]	4.30 to 5.00
O=C1CCC(C(=O)Nc2cccnc2)C(=O)N1 (centres unmarked) [Compound 16]	< 4.00
CC(=O)Nc1ccc(C23CC2C(=O)NC3=O)cc1 (centres unmarked) [Compound 6, N-(4-(2,4-dioxo-3-azabicyclo[3.1.0]hexan-1-yl)phenyl)acetamide]	< 4.00
CC1(c2ccccc2)CCC(=O)NC1=O (centres unmarked) [Compound 8, 3-Methyl-3-phenylpiperidine-2,6-dione]	< 4.52
Cn1ccc2ccc(C3CCC(=O)NC3=O)nc21 (centres unmarked) [Compound 35, 3-(1-Methyl-1H-pyrrolo[2,3-b]pyridin-6-yl)-piperidine-2,6-dione]	4.30 to 5.00
O=C1CCC(C(=O)Nc2ccccn2)C(=O)N1 (centres unmarked) [Compound 17]	< 4.00
O=C1CCC(CC(=O)Nc2ccccc2F)C(=O)N1 (centres unmarked) [Compound 23, 2-(2,6-Dioxo-piperidin-3-yl)-N-(2-fluoro-phenyl)-acetamide]	4.00 to 4.30

SMILES	pKd
Cn1c(C2CCC(=O)NC2=O)nc2ccccc21 (centres unmarked) [Compound 62, 3-(1-methyl-1H-benzo[d]imidazol-2-yl)piperidine-2,6-dione]	4.00 to 4.30
CN1Cc2ccc(C3CCC(=O)NC3=O)cc2C1=O (centres unmarked) [Compound 41, 3-(2-Methyl-3-oxo-2,3-dihydro-1H-isoindol-5-yl)-piperidine-2,6-dione]	4.30 to 5.00
Cn1ccc(C2CCC(=O)NC2=O)n1 (centres unmarked) [Compound 33, 3-(1-methyl-1H-pyrazol-3-yl)piperidine-2,6-dione]	4.30 to 5.00
Cc1nc(C2CCC(=O)NC2=O)cn1-c1ccccc1 (centres unmarked) [Compound 46, 3-(2-Methyl-1-phenyl-1H-imidazol-4-yl)-piperidine-2,6-dione]	4.30 to 5.00
Cn1cc(C2CCC(=O)NC2=O)nn1 (centres unmarked) [Compound 26, 3-(1-Methyl-1H-[1,2,3]triazol-4-yl)-piperidine-2,6-dione]	4.00 to 4.30
O=C1NC(=O)C2(c3ccccc3)CC12 (centres unmarked) [Compound 1, 1-phenyl-3-azabicyclo[3.1.0]hexane-2,4-dione]	< 4.00
Cn1c(=O)c(C2CCC(=O)NC2=O)cc2ccccc21 (centres unmarked) [Compound 40, 3-(1-Methyl-2-oxo-1,2-dihydro-quinolin-3-yl)-piperidine-2,6-dione]	> 5.00
O=C1CCC(CC(=O)N2CCNCC2)C(=O)N1 (centres unmarked) [Compound 45, 3-(2-Oxo-2-piperazin-1-yl-ethyl)-piperidine-2,6-dione hydrochloride Salt]	4.00 to 4.30
CN(C(=O)C1CCC(=O)NC1=O)c1ccccn1 (centres unmarked) [Compound 20]	< 4.00
Cc1nc2cc(C3CCC(=O)NC3=O)ccc2s1 (centres unmarked) [Compound 48, 3-(2-Methyl-benzothiazol-5-yl)-piperidine-2,6-dione]	> 5.00
CC(C)(C)OC(=O)N1CCN(C(=O)CC2CCC(=O)NC2=O)CC1 (centres unmarked) [Compound 44, 4-[2-(2,6-Dioxo-piperidin-3-yl)-acetyl]-piperazine-1-carboxylic acid tert-butyl ester]	4.00 to 4.30
Cn1nc(C2CCC(=O)NC2=O)c2ccccc21 (centres unmarked) [Compound 37, 3-(1-Methyl-1H-indazol-3-yl)-piperidine-2,6-dione]	> 5.00
Cn1nc([C@@H]2CCC(=O)NC2=O)c2ccccc21 [Compound 38]	> 5.00
O=C1CCC(c2cn(-c3ccccc3)cn2)C(=O)N1 (centres unmarked) [Compound 64, 3-(1-phenyl-1H-imidazol-4-yl)piperidine-2,6-dione]	4.30 to 5.00
Cn1nc(C2CCC(=O)NC2=O)c2ccc(NC3CCN(C(=O)OC(C)(C)C)CC3)cc21 (centres unmarked) [Compound 52, tert-Butyl 4-((3-(2,6-dioxopiperidin-3-yl)-1-methyl-1H-indazol-6-yl)amino)piperidine-1-carboxylate]	> 5.00
Cn1nc(C2CCC(=O)NC2=O)c2ccc(NC3CCNCC3)cc21 (centres unmarked) [Compound 53, 3-(1-Methyl-6-(piperidin-4-ylamino)-1H-indazol-3-yl)piperidine-2,6-dione hydrochloride]	> 5.00
Cn1cnc2c(C3CCC(=O)NC3=O)cccc21 (centres unmarked) [Compound 36, 3-(1-methyl-1H-benzo[d]imidazol-4-yl)piperidine-2,6-dione]	4.30 to 5.00
COc1ccccc1NC(=O)C1CCC(=O)NC1=O (centres unmarked) [Compound 15]	4.30 to 5.00
O=C1CCC(Cc2cn(-c3ccccc3)nn2)C(=O)N1 (centres unmarked) [Compound 24, 3-(1-Phenyl-1H-[1,2,3]triazol-4-ylmethyl)-piperidine-2,6-dione]	4.30 to 5.00
Cn1cc(C2CCC(=O)NC2=O)c2ccccc21 (centres unmarked) [Compound 29, 3-(1-Methyl-1H-indol-3-yl)-piperidine-2,6-dione]	> 5.00

SMILES	pKd
Cn1nc(-c2ccccc2)cc1C1CCC(=O)NC1=O (centres unmarked) [Compound 31, 3-(1-methyl-3-phenyl-1H-pyrazol-5-yl)piperidine-2,6-dione]	4.00 to 4.30
O=C1CCC(Cc2ccccc2)C(=O)N1 (centres unmarked) [Compound 50, 3-benzylpiperidine-2,6-dione]	4.30 to 5.00
O=C1NC(=O)C2(c3ccccc3)CC1C2 [Compound 2, 1-Phenyl-3-azabicyclo[3.1.1]heptane-2,4-dione]	< 4.52
CC(C)(C)OC(=O)N1Cc2cccc(C3CCC(=O)NC3=O)c2C1 (centres unmarked) [Compound 42, 4-(2,6-dioxo-piperidin-3-yl)-1,3-dihydro-isoindole-2-carboxylic acid tert-butyl ester]	4.30 to 5.00
CN(C)CC(=O)Nc1ccc(C23CC2C(=O)NC3=O)cc1 (centres unmarked) [Compound 5, 2-(dimethylamino)-N-(4-(2,4-dioxo-3-azabicyclo[3.1.0]hexan-1-yl)phenyl)acetamide]	< 4.00
O=C1CCC(C(=O)Nc2ccccc2)C(=O)N1 (centres unmarked) [Compound 14]	4.00 to 4.30
Cn1c(=O)oc2ccc(C3CCC(=O)NC3=O)cc21 (centres unmarked) [Compound 49, 3-(3-Methyl-2-oxo-2,3-dihydro-benzooxazol-5-yl)-piperidine-2,6-dione]	4.30 to 5.00
CC1(c2ccccc2N)CCC(=O)NC1=O (centres unmarked) [Compound 11, 3-(2-aminophenyl)-3-methylpiperidine-2,6-dione]	< 4.52
O=C1NC(=O)C2(c3ccc([N+](=O)[O-])cc3)CC12 (centres unmarked) [Compound 3, 1-(4-Nitrophenyl)-3-azabicyclo[3.1.0]hexane-2,4-dione]	< 4.00
O=C1CCC(C(=O)Nc2ccccc2F)C(=O)N1 (centres unmarked) [Compound 18]	< 4.00
CS(=O)(=O)Nc1ccc(C23CC2C(=O)NC3=O)cc1 (centres unmarked) [Compound 7, N-(4-(2,4-dioxo-3-azabicyclo[3.1.0]hexan-1-yl)phenyl)methanesulfonamide]	< 4.00
CN(C(=O)C1CCC(=O)NC1=O)c1ccccc1F (centres unmarked) [Compound 21]	4.00 to 4.30
Cn1nc(C2CCC(=O)NC2=O)cc1-c1ccccc1 (centres unmarked) [Compound 30, 3-(1-methyl-5-phenyl-1H-pyrazol-3-yl)-piperidine-2,6-dione]	> 5.00
Cc1ccccc1C1CCC(=O)NC1=O (centres unmarked) [Compound 32, 3-(o-tolyl)piperidine-2,6-dione]	4.30 to 5.00
Cn1nc([C@H]2CCC(=O)NC2=O)c2ccccc21 [Compound 39]	4.30 to 5.00
O=C1CCC(c2cn(-c3ccccc3)nn2)C(=O)N1 (centres unmarked) [Compound 27, 3-(1-Phenyl-1H-[1,2,3]triazol-4-yl)-piperidine-2,6-dione]	4.30 to 5.00
CN(C(=O)C1CCC(=O)NC1=O)c1ccccc1 (centres unmarked) [Compound 22]	< 4.00
O=C1CCC(c2ccc3c(c2)CNC3)C(=O)N1 (centres unmarked) [Compound 55, 3-(Isoindolin-5-yl)piperidine-2,6-dione hydrochloride]	4.00 to 4.30
Cn1nc(CC2CCC(=O)NC2=O)c2ccccc21 (centres unmarked) [Compound 13, 3-((1-methyl-1H-indazol-3-yl)methyl)piperidine-2,6-dione]	< 4.00

Source: patent publication US10849982B2, “C3-carbon linked glutarimide degronimers for target protein degradation” (C4 Therapeutics, Inc., priority 2016, dated 2020)
